Test results reported in US20100330685A1, “DIAMINORHODAMINE DERIVATIVE” (SEKISUI MEDICAL CO., LTD., priority 2000, published 2010).
Where a name gives a salt, the structure may show the parent alone.

Columns and labels:
[1] = test system: Bovine aorta endothelial cells; assay: Imaging of nitric oxide in cells; assay type: cell-based
Protocol: Bovine aorta endothelial cells were cultured on an imaging dish. The culture broth was changed to DMEM medium (supplemented with 0.2% DMSO) containing DAR-4M AM (10 μM) prepared in Example 5, and incubated at 37° C. for 30 minutes to load DAR-4M AM on the cells. The cells were washed, and the culture broth was changed again to DMEM medium not containing DAR-4M AM. After incubation at 37° C. for 1 hour, imaging was performed. The cells were examined with a fluorescence microscope equipped with an excitation filter (520 to 550 nm), a dichromic mirror (565 nm), and a barrier filter (580 nm, long pass). The measurement was performed in a warm box kept at 37° C. Imaging interval was set to be 10 seconds, and images captured by a cooled charge-coupled device camera were recorded and analyzed by an image analyzer. The results in the figure are shown with averaged change of relative fluorescence intensity of arbitrary seven cells based on the fluorescence intensity at the time of the start of the measurement. The fluorescence intensity was increased by stimulation with bradykinin (FIG. 3(A)), but the fluorescence intensity was not increased in the presence of a nitric oxide synthetase inhibitor (1 mM L-NAME) (FIG. 3(B)).

| Compound | reaction with nitric oxide in the cells ([1]; DAR-4M produced in the cells from DAR-4M AM) | melting point | uptake into the cells ([1]; 10 μM in DMEM medium, 37° C., 30 minutes) | fluorescence intensity in the presence of a nitric oxide synthetase inhibitor ([1]; 1 mM L-NAME, cells loaded with 10 μM) | fluorescence intensity on stimulation with bradykinin ([1]; cells loaded with 10 μM, 37° C., 30 minutes, average of seven cells) |
| --- | --- | --- | --- | --- | --- |
| CNc1ccc(-c2c3ccc(N(C)C)cc3[o+]c3cc(N(C)C)ccc23)c(C(=O)[O-])c1N [DAR-4M, 3,6-bis(dimethylamino)-9-[3-amino-4-(N-methylamino)-2-carboxyphenyl]xanthylium intramolecular salt] | specifically reacted with nitric oxide | – | – | – | – |
| CNc1ccc(-c2c3ccc(N(C)C)cc3[o+]c3cc(N(C)C)ccc23)c(C(=O)OCOC(C)=O)c1N.[I-] [DAR-4M AM, 3,6-bis(dimethylamino)-9-[2-acetoxymethoxycarbonyl-3-amino-4-(N-methylamino)phenyl]xanthylium iodide] | – | 177 to 178 °C | taken into the cells | not increased | increased |
| CCN(CC)c1ccc2c(-c3ccc(NC)c(N)c3C(=O)OCOC(C)=O)c3ccc(N(CC)CC)cc3[o+]c2c1.[I-] [DAR-M AM, 3,6-bis(diethylamino)-9-[2-acetoxymethoxycarbonyl-3-amino-4-(N-methylamino)phenyl]xanthylium iodide] | – | 147 to 150 °C | – | – | – |
